Entries after “also recorded” stand apart in the source; their conditions may differ.
Legend:
[1] = test system: AKT phosphorylation (Ser473, Thr308); assay: western immunoblot of AKT signaling, MOLM14 or K562 cells; type: cell-based, human
From the text: For comparative analysis, additional lysates from cells treated with an ABL1 or FLT3 tyrosine kinase inhibitor (imatinib for K562 BCR-ABL1 cells, sunitinib for MOLM14 FLT3 ITD cells) as well as rapamycin were used.
Rabbit anti-panAKT, panFLT3, panABL1 or anti-cleaved caspase 3 antibodies were used at a 1:500 to 1:1000 dilution. Rabbit anti-phospho-AKT antibodies detecting phosphorylated isoforms of T308-AKT, S473-AKT, S807/811-RB, S575-ULK1, T389-p70S6K, Y694-STAT5, FLT3, ABL1 or T202/Y204-ERK1/2 were used at a 1:250 to 1:1000 dilution. An anti-actin mouse monoclonal antibody was used as a loading control. All antibodies, if not otherwise indicated, were purchased from Cell Signaling Technology.
Cell pellets were lysed with 100 to 150 μl of protein lysis buffer (50 mmol/L Tris, 150 mmol/L NaCl, 1% NP40, 0.25% deoxycholate with added inhibitors aprotinin, AEBSF, leupeptin, pepstatin, sodium orthovanadate, and sodium pyruvate, respectively phosphatase inhibitor cocktails „2“ and „1“ or „3“ (Sigma, St. Louis, MO). Protein from cell lysates (75 to 200 μg protein) was used for whole cell protein analysis after denaturing by Western immunoblot assays using a BioRad Criterion system. Nonspecific binding was blocked by incubating the blots in nonfat dry milk or BSA. Primary antibodies were incubated for one hour or over night, followed by several washes of Tris-buffered saline (TBS) containing 0.005% Tween 20. The appropriate secondary antibody was applied for 30‘, followed by several washes. Antibody-reactive proteins were detected using a LI-COR Odyssey® fluorescence optical system.

Ba/F3 KIT D816Y = assay: Induction of apoptosis, isogenic Ba/F3 model; type: cell-based, murine; settings: for IC50: Mus musculus, BaF3
Experimental: (§1) Translocation of phosphatidylserine from the inner to the outer leaflet of the plasma membrane as an early indicator of apoptosis was analyzed using an Annexin V-based assay (Immunotech, Marseilles, France) and a FACScalibur® flow cytometer loaded with CellQuest® analysis software (BD, Heidelberg, Germany).

Ba/F3 FLT3 D835Y = assay: Induction of apoptosis, isogenic Ba/F3 model; type: cell-based, murine
Experimental: as §1

Ba/F3 KIT D816F = assay: Induction of apoptosis, isogenic Ba/F3 model; type: cell-based, murine; settings: for IC50: Mus musculus, BaF3
Experimental: as §1

Ba/F3 KIT D816V = assay: Induction of apoptosis, isogenic Ba/F3 model; type: cell-based, murine
Experimental: as §1

Ba/F3 Parental (w/ IL3) = assay: Induction of apoptosis, isogenic Ba/F3 model; type: cell-based, murine
Experimental: as §1

Ba/F3 FLT3 ITD = assay: Induction of apoptosis, isogenic Ba/F3 model; type: cell-based, murine; settings: for IC50: Mus musculus, not reached = > 5 000 nM
Experimental: as §1

Ba/F3 FLT3 WT = assay: Induction of apoptosis, isogenic Ba/F3 model; type: cell-based, murine; settings: for IC50: Mus musculus, BaF3
Experimental: as §1

Ba/F3 FLT3 N841H = assay: Induction of apoptosis, isogenic Ba/F3 model; type: cell-based, murine
Experimental: as §1

Ba/F3 BCR/ABL1 = assay: Induction of apoptosis, isogenic Ba/F3 model; type: cell-based, murine
Experimental: as §1

Ba/F3 FLT3 K663Q = assay: Induction of apoptosis, isogenic Ba/F3 model; type: cell-based, murine
Experimental: as §1

[2] = test system: native mononuclear cells derived from bone marrow donors; assay: Annexin V/PI apoptosis assay, donor mononuclear cells ex vivo; type: cell-based, human; settings: for IC50: Homo sapiens
Experimental: However, this observation will need prospective verification on a larger patient cohort.
as §1

Ba/F3 KIT WT = assay: Inhibition of proliferation (XTT), isogenic Ba/F3 model; type: cell-based, murine; settings: Mus musculus; for IC50: BaF3; for viability at 0.01 µM: BaF3, 10 nM, read-out: Inhibition of proliferation At 10 nM (% alive); for viability at 0.1 µM: BaF3, 100 nM, read-out: Inhibition of proliferation At 100 nM (% alive)
Experimental: FLT3 S451F cDNA cloned into a pCMVneo plasmid vector [53] was generously provided by Dr. Fröhling, University of Ulm, Germany. KIT wildtype cDNA cloned into a pJP1563 plasmid vector was obtained from the DNASU Plasmid Repository at the Biodesign Institute of the Arizona State University (ASU). Lipofection transfection into the parental Ba/F3 cell line was performed to stably express KIT wildtype or mutant FLT3 S451F by double selection for neomycin (pCMVneo plasmid), blasticidin (pJP1563 plasmid) or […] (G418; all other plasmids) resistance and IL-3-independent growth. The Ba/F3 KIT wildtype cell line was cultured using recombinant human stem cell factor (SCF/KIT Ligand, R&D, Minneapolis, MN) as a growth supplement.

[3] = Mus musculus, BaF3, not reached = > 5 000 nM

| SMILES | phosphorylation of AKT (immunoblot) [1] | Induction of apoptosis At 1000 nM (% apopt.) (Ba/F3 KIT D816Y) [%] | Induction of apoptosis At 5000 nM (% apopt.) (Ba/F3 KIT D816Y) [%] | IC50 (Ba/F3 KIT D816Y) [nM] | Induction of apoptosis At 1000 nM (% apopt.) (Ba/F3 FLT3 D835Y) [%] | Induction of apoptosis At 5000 nM (% apopt.) (Ba/F3 FLT3 D835Y) [%] | Induction of apoptosis At 1000 nM (% apopt.) (Ba/F3 KIT D816F) [%] | Induction of apoptosis At 5000 nM (% apopt.) (Ba/F3 KIT D816F) [%] | IC50 (Ba/F3 KIT D816F) [nM] | Induction of apoptosis At 1000 nM (% apopt.) (Ba/F3 KIT D816V) [%] | Induction of apoptosis At 5000 nM (% apopt.) (Ba/F3 KIT D816V) [%] | Induction of apoptosis At 1000 nM (% apopt.) (Ba/F3 Parental (w/ IL3)) [%] | Induction of apoptosis At 5000 nM (% apopt.) (Ba/F3 Parental (w/ IL3)) [%] | Induction of apoptosis At 1000 nM (% apopt.) (Ba/F3 FLT3 ITD) [%] | Induction of apoptosis At 5000 nM (% apopt.) (Ba/F3 FLT3 ITD) [%] | IC50 (Ba/F3 FLT3 ITD) [nM] | Induction of apoptosis At 1000 nM (% apopt.) (Ba/F3 FLT3 WT) [%] | Induction of apoptosis At 5000 nM (% apopt.) (Ba/F3 FLT3 WT) [%] | IC50 (Ba/F3 FLT3 WT) [nM] | Induction of apoptosis At 1000 nM (% apopt.) (Ba/F3 FLT3 N841H) [%] | further results |
| --- | --- | --- | --- | --- | --- | --- | --- | --- | --- | --- | --- | --- | --- | --- | --- | --- | --- | --- | --- | --- | --- |
| Cn1c(=O)n(-c2ccc(C(C)(C)C#N)cc2)c2c3cc(-c4cnc5ccccc5c4)ccc3ncc21 [NVP-BEZ235] | potently suppressed phosphorylation of AKT at Ser473 as well as Thr308 | 5 | 73 | 1360 | 19 | 28 | 40 | 87 | 1240 | 4 | 23 | 3 | 6 | 19 | 27 | > 10000 | 38 | 40 | 8300 | 19 | Induction of apoptosis IC50 (Ba/F3 FLT3 D835Y; not reached = > 5 000 nM): Not reached; Induction of apoptosis IC50 (Ba/F3 KIT D816V; not reached = > 5 000 nM): Not reached; Induction of apoptosis IC50 (Ba/F3 Parental (w/ IL3); not reached = > 5 000 nM): Not reached*; Induction of apoptosis At 5000 nM (% apopt.) (Ba/F3 FLT3 N841H): 22%; Induction of apoptosis IC50 (Ba/F3 FLT3 N841H; not reached = > 5 000 nM): Not reached; Induction of apoptosis At 1000 nM (% apopt.) (Ba/F3 BCR/ABL1): 38%; Induction of apoptosis At 5000 nM (% apopt.) (Ba/F3 BCR/ABL1): 39%; Induction of apoptosis IC50 (Ba/F3 BCR/ABL1; not reached = > 5 000 nM): failed to achieve IC50; also recorded: Not reached; Induction of apoptosis At 1000 nM (% apopt.) (Ba/F3 FLT3 K663Q): 17%; Induction of apoptosis At 5000 nM (% apopt.) (Ba/F3 FLT3 K663Q): 16%; Induction of apoptosis IC50 (Ba/F3 FLT3 K663Q; not reached = > 5 000 nM): Not reached; Apoptosis IC50 ([2]; Pt. Nr. 538 (donor)): Not reached; Apoptosis IC50 ([2]; Pt. Nr. 554 (donor)): Not reached; IC50 (Ba/F3 KIT WT): 6 nM; viability at 0.01 µM (Ba/F3 KIT WT): 12%; viability at 0.1 µM (Ba/F3 KIT WT): 11% |
| COc1ccc(-c2ccc3ncc4c(c3c2)n(-c2ccc(N3CCNCC3)c(C(F)(F)F)c2)c(=O)n4C)cn1 [NVP-BGT226] | potently suppressed phosphorylation of AKT at Ser473 as well as Thr308 | 89 | 96 | 118 | 33 | 98 | 87 | 89 | 258 | 7 | 99 | 7 | 99 | 38 | 98 | 1080 | 41 | 99 | 345 | 18 | IC50 (Ba/F3 FLT3 D835Y; [3]): 1070 nM; IC50 (Ba/F3 KIT D816V; [3]): 1790 nM; IC50 (Ba/F3 Parental (w/ IL3); [3]): 1820 nM; Induction of apoptosis At 5000 nM (% apopt.) (Ba/F3 FLT3 N841H): 99%; IC50 (Ba/F3 FLT3 N841H; [3]): 1210 nM; Induction of apoptosis At 1000 nM (% apopt.) (Ba/F3 BCR/ABL1): 56%; Induction of apoptosis At 5000 nM (% apopt.) (Ba/F3 BCR/ABL1): 97%; IC50 (Ba/F3 BCR/ABL1; [3]): 262 nM; Induction of apoptosis At 1000 nM (% apopt.) (Ba/F3 FLT3 K663Q): 26%; Induction of apoptosis At 5000 nM (% apopt.) (Ba/F3 FLT3 K663Q): 98%; IC50 (Ba/F3 FLT3 K663Q; [3]): 1110 nM; IC50 ([2]; Pt. Nr. 538 (donor)): 1780 nM; IC50 ([2]; Pt. Nr. 554 (donor)): 3810 nM; IC50 (Ba/F3 KIT WT): 6 nM; viability at 0.01 µM (Ba/F3 KIT WT): 24%; viability at 0.1 µM (Ba/F3 KIT WT): 13% |

From article PMC3689638, “Cell cycle-dependent activity of the novel dual PI3K-MTORC1/2 inhibitor NVP-BGT226 in acute leukemia” (Molecular Cancer, 2013)
